# Measurements taken from patent US7973219B2, “Method for producing transgenic plants resistant to weed control compounds which disrupt the porphyrin pathways of plants” (Sumitomo Chemical Company, Limited, priority 1998, dated 2011).
# Like-named read-outs stand apart in the source and are kept apart here.
# Columns and labels:
# [1] = system: tobacco introduced with the gene encoding the variant soybean PPO; assay: Leaf piece chlorophyll test, tobacco with gene encoding variant soybean PPO; type: in vivo; conditions: Table 8; for Resistant level to test compound: same manner as Example 6 (0.3 ppm), treated vs untreated leaf pieces; for Total chlorophyll content treated-leaf: same manner as Example 6 (0.3 ppm, 7 days in light)
# Excerpt: The tobacco leaves into which bchH gene was introduced and control recombinant tobacco leaves obtained in Example 5 were collected and each leaf was divided into the right and left equivalent pieces along the main vein, respectively. To one piece was applied an aqueous solution containing 0.3 ppm PPO inhibitory-type herbicidal compound of Structure 8, while, to the other piece was not applied the compound. These leaf pieces were placed on MS medium containing 0.8% agar and allowed to stand at room temperature for 7 days in light place. Then, each leaf piece was ground with pestle and mortar in 5 ml of 80% aqueous acetone solution to extract chlorophyll. The extract liquid was diluted with 80% aqueous acetone solution and the absorbance was measured at 750 nm, 663 nm and 645 nm to calculate total chlorophyll content according to the method described by Macknney G., J. Biol. Chem. (1941) 140, p 315. The results obtained from 4 clones of tobacco into which bchH gene was introduced (BCH1 to 4) and control recombinant tobacco is shown in Table 4. In the table, the resistant level to the herbicidal compound was represented by percentages of the total chlorophyll content of leaf pieces treated with herbicidal compound to that of untreated leaf pieces.
# Leaf pieces of tobacco cultured sterilely were infected with the Agrobacterium strain and, according to the same manner as in Example 5, tobacco into which the gene encoding the variant soybean PPO was introduced was obtained.
# The level of resistance to PPO inhibitory type herbicidal compound represented by Structure 8 was confirmed quantitatively by testing tobacco into which the gene encoding the variant soybean PPO prepared in Example 13 was introduced according to the same manner as in Example 6. The results obtained from 4 clones (GMP 1-4) of tobacco introduced with the gene encoding the variant soybean PPO and control recombinant tobacco are shown in Table 8. In the table, the resistant level to herbicidal compound is represented by percentage of the total chlorophyll content of leaf pieces treated with the herbicidal compound to that of untreated leaf pieces.
# [2] = system: E. coli BT3/pACYCSP+pTVBCH strain; assay: Growth of E. coli BT3/pACYCSP+pTVBCH (bchH) with herbicidal compound; type: cell-based; conditions: Escherichia coli, 18 h, 18 hours culture, Table 2
# Excerpt: According to the description of Gibson, L. C. D. et al., Proc. Natl. Acad. Sci. USA, 92; p 1941 (1995), the DNA fragment containing bchH gene prepared in Example 1 was digested with the restriction enzymes NdeI and BglII. The resultant DNA fragment was inserted between NdeI restriction site and BamHI restriction site of expression vector pET11a (manufactured by Stratagene) to obtain plasmid pETBCH (FIG. 1). This plasmid pETBCH was introduced into E. coli BL21(DE3) strain competent cells (manufactured by Stratagene) according to the manual attached to the competent cells to obtain E. coli BL21(DE3)/pETBCH strain. The strain was inoculated into 1.5 ml LB liquid culture medium (1% tryptone, 0.5% yeast extract, 0.5% NaCl) containing 100 μg/ml ampicillin in a tube (14×10 mm), and the tube was covered with aluminum foil (hereinafter referred to as dark conditions), cultured with shaking at 37° C. under light of fluorescent lamp (about 8000 lux). When the absorbance at 600 nm of the liquid culture medium became about 0.6, isopropyl β-D-thiogalactopyranoside (IPTG) was added to the liquid culture medium so that the final concentration was 0.4 mM, and the culture was continued for about additional 20 hours. […] In contrast to this, when E. coli BL21(DE3)/pETBCH strain was cultured according to the same manner (with IPTG) except that the tube was not covered with aluminum foil (hereinafter referred to as light conditions), E. coli grew and turned red as above. […]
# These strains were inoculated into YPT medium containing 10 or 1 ppm of the PPO inhibitory-type herbicidal compound represented by the above Structure 8, 100 μg/ml ampicillin, 15 μg/ml chloramphenicol, 10 μg/ml kanamycin, 10 μg/ml hemin and 50 μg/ml aminolevulinic acid, cultured under dark conditions or light conditions according to the same manner as in Example 2. Then, 18 hours after initiation of culture, the absorbance of the liquid culture medium was measured at 600 nm. By taking the absorbance of the medium without the herbicidal compound as 1, the relative value of the absorbance of the medium containing the herbicidal compound was calculated.
# Further, these strains were inoculated into YPT medium containing PPO inhibitory-type herbicidal compounds represented by the above Structures 1, 14, 15, 18-22, 29, 32, 33, 34 and 36, respectively, 100 μg/ml ampicillin, 15 μg/ml chloramphenicol, 10 μg/ml kanamycin, 10 μg/ml hemin and 50 μg/ml aminolevulinic acid, cultured under dark conditions or light conditions similar to the Example 2. Then, 18 hours after initiation of culture, the absorbance of liquid culture medium was measured at 600 nm. By taking the absorbance of the medium without the herbicidal compound as 1, the relative value of the absorbance of the medium containing the herbicidal compound was calculated.
# [3] = read-out: Relative absorbance, in the dark
# [4] = read-out: Relative absorbance, in the light
smiles,measurement,setting,value
C#CCOc1cc(N2C(=O)C3=C(CCCC3)C2=O)c(F)cc1Cl [Structure 8],Resistant level to test compound,[1]; clone GMP-1,135%
same,Total chlorophyll content treated-leaf,[1]; clone GMP-1,2.55 mg/g-fresh weight
same,Resistant level to test compound,[1]; clone GMP-2,108%
same,Total chlorophyll content treated-leaf,[1]; clone GMP-2,0.96 mg/g-fresh weight
same,Resistant level to test compound,[1]; clone GMP-3,99.3%
same,Total chlorophyll content treated-leaf,[1]; clone GMP-3,1.49 mg/g-fresh weight
same,Resistant level to test compound,[1]; clone GMP-4,80.4%
same,Total chlorophyll content treated-leaf,[1]; clone GMP-4,2.34 mg/g-fresh weight
same,activity at 1 ppm,[2]; [3],106%
same,activity at 10 ppm,[2]; [3],90%
same,activity at 1 ppm,[2]; [4],77%
same,activity at 10 ppm,[2]; [4],80%
